Source: patent EP4763206A1, “AGENT FOR SUPPRESSING AGGREGATION OF TDP-43, AGENT FOR SUPPRESSING CELL DEATH OF CELLS IN WHICH TDP-43 IS OVEREXPRESSED, AND AGENT FOR PREVENTING OR TREATING DISEASES ASSOCIATED WITH AGGREGATION OF TDP-43” (Socium Inc., priority 2023, dated 2025)
pEC50: −log10 of the molar value. “Also recorded” adds a separate entry of the source. Read-outs that look alike come from different tables or passages of the source.

Key:
TDP-43 [1] = test: Soluble/insoluble TDP-43 fractions in TDP-43-transfected Neuro2a cells, western blot (Reference Example 3); type: cell-based, Mouse; conditions: 10 µmol/L added 6 hours after transfection; for number of soluble fractions versus insoluble fractions of TDP-43: cultured for 12 hours (Figure 5); for proportion of insoluble fractions based on total of soluble and insoluble fractions of TDP-43: cultured for 12 hours (Figure 6)
Protocol: Mouse neuroblastoma (Neuro2a) cells were seeded on a dish. The Neuro2a cells were cultured in a culture medium containing DMEM+10% FBS at 37°C in the presence of 5% CO2. On the first day after seeding, differentiation into neurons was initiated. Differentiation into neurons was performed in a culture medium containing DMEM+2% FBS+20 µmol/L retinoic acid. On the fourth day after seeding, cells were transfected with synthesized TDP-43 mRNA by a lipofection method. Cells were sampled at 6 hours, 9 hours, 12 hours, 15 hours, 18 hours, and 21 hours after transfection. […] For sampling, cells were lysed in an RIPA buffer and centrifuged at 22,000×g for 30 minutes at 4°C, the supernatant was used as the soluble fraction, the precipitate was used as the insoluble fraction, and equal volumes of a 2×SDS sample buffer were added to the respective fractions and heated at 95°C for 5 minutes to prepare electrophoresis samples. The electrophoresis samples were subjected to electrophoresis using a polyacrylamide gel, TDP-43 was then transferred to a PVDF membrane. TDP-43 was detected through chemiluminescence using anti-TDP-43 antibodies as primary antibodies and HRP-conjugated anti-rabbit antibodies as secondary antibodies. […] The insoluble fractions of TDP-43 indicate the aggregation of TDP-43.
Neuro2a cells were seeded on a dish. On the first day after seeding, differentiation into neurons was initiated. On the fourth day after seeding, cells were transfected with the TDP-43 gene.

Neuro2a cells [2] = test: Suppression of cell death in TDP-43-transfected Neuro2a cells (Reference Example 2); type: cell-based, Mouse; conditions: 10 to 10,000 nmol/L added 5 hours after transfection; evaluated 7 days after transfection (Figures 3, 4)
Protocol: Neuro2a cells were seeded on a dish. On the first day after seeding, differentiation into neurons was initiated. On the fourth day after seeding, cells were transfected with the TDP-43 gene. […] In addition, as a control, 10 nmol/L, 50 nmol/L, 100 nmol/L, 500 nmol/L, 1,000 nmol/L, 5,000 nmol/L, or 10,000 nmol/L of ropinirole was added to a culture medium.
The proportion of dead cells was evaluated 7 days after the cells were transfected with the TDP-43 gene.

TDP-43 [3] = test: Soluble/insoluble TDP-43 fractions in motor neurons derived from iPS cells of healthy subjects, western blot (Reference Example 4); type: cell-based, human; conditions: 10 µmol/L, cultured for 20 days (Figure 7)
Protocol: 100 µL of an EHS-gel basement membrane matrix (commercially available from FUJIFILM Wako Pure Chemical Corporation) was added to 12.5 mL of DMEM (Dulbecco's Modified Eagle Medium, commercially available from FUJIFILM Wako Pure Chemical Corporation) and mixed, and the mixture was added to a 24-well plate at 600 µL per well. The plate was left at room temperature for 2 hours, and the solution was then removed from the wells. Next, 600 µL of DMEM was added to each well, and the plate was left at room temperature for 2 hours.
Motor neurons derived from iPS cells of healthy subjects and motor neurons derived from iPS cells of ALS patients were obtained from iXCells Biotechnologies. The motor neurons were quickly thawed in a thermostatic oven at 37°C and suspended in a motor neuron maintenance culture medium (iXCells Biotechnologies). […]
The soluble protein fractions and the insoluble protein fractions were subjected to SDS-PAGE, and the proteins were transferred to a PVDF membrane. […] Next, the PVDF membrane was washed three times with a buffer solution, 1 mL of a luminescence reagent (ImmunoStar LD, commercially available from FUJIFILM Wako Pure Chemical Corporation) was then used to induce luminescence from the labeled secondary antibodies, and the PVDF membrane was imaged.

TDP-43 [4] = test: Soluble/insoluble TDP-43 fractions in motor neurons derived from iPS cells of ALS patients, western blot (Reference Example 4); type: cell-based, human; conditions: 10 µmol/L; for bands for insoluble fractions of TDP-43: cultured for 20 days (Figure 7); for average proportion of insoluble fractions of TDP-43: cultured for 20 days, three experiments, untreated ALS about 46.1%, healthy about 7.4%
[5] = cited from earlier work
[6] = cited from earlier work; remark: listed apart in the source
Neuro2a cells [7] = test: Cell death suppression by D-cycloserine combined with edaravone in TDP-43-transfected Neuro2a cells (Example 1); type: cell-based; conditions: Mus musculus, N2a
Protocol: Neuro2a cells were seeded on a dish. On the first day after seeding, differentiation into neurons was initiated. On the fourth day after seeding, cells were transfected with the TDP-43 gene. […] The proportion of dead cells was evaluated 7 days after the cells were transfected with the TDP-43 gene. […] Here, the relative viability indicates the proportion of the number of viable cells overexpressing TDP-43 based on 100% of the number of viable cells not overexpressing TDP-43. […] The CI was calculated using the following formula. […] CI=1 indicates an additive effect, CI>1 indicates an antagonistic effect, and CI<1 indicates a synergistic effect.

[8] = Reported human pharmacokinetics of D-cycloserine; type: in vivo, humans; conditions: estimated; 15 mg orally administered twice daily

## N[C@H]1CONC1=O [L-cycloserine, (4S)-4-amino-1,2-oxazolidin-3-one]
TDP-43 [1]
  number of soluble fractions versus insoluble fractions of TDP-43: the number of soluble fractions of TDP-43 was larger than the number of insoluble fractions of TDP-43
  proportion of insoluble fractions based on total of soluble and insoluble fractions of TDP-43: less than half
Neuro2a cells [2]
  cell death in cells transfected with the TDP-43 gene: exhibited an effect of inhibiting cell death in a concentration-dependent manner

## CCCN(CCC)CCc1cccc2c1CC(=O)N2 [ropinirole]
TDP-43 [3]
  bands for insoluble fractions of TDP-43: bands for insoluble fractions were unclear
TDP-43 [4]
  bands for insoluble fractions of TDP-43: bands for insoluble fractions were unclear
  average proportion of insoluble fractions of TDP-43: about 19.3%

## N[C@@H]1CONC1=O [D-cycloserine, (4R)-4-Amino-1,2-oxazolidin-3-one]
[5]; 150 mg administered to humans
  side effects: headaches
[5]; 250 mg administered to humans to treat tuberculosis
  side effects: serious side effects such as epileptiform seizure and mental confusion
[6]; 15 mg orally administered to humans, read-out: maximum blood concentration (Cmax)
  Cmax: ~5.6 µM
[6]; in vivo
  half-life: about 10 hours
Neuro2a cells [7]; read-out: EC50 of the cell death suppressory effect of D-cycloserine, at 0 nmol/L of edaravone
  pEC50: 6.82
Neuro2a cells [7]; read-out: EC50 of the cell death suppressory effect of D-cycloserine, at 10 nmol/L of edaravone
  pEC50: 6.83
Neuro2a cells [7]; read-out: EC50 of the cell death suppressory effect of D-cycloserine, at 30 nmol/L of edaravone
  pEC50: 6.87
Neuro2a cells [7]; read-out: EC50 of the cell death suppressory effect of D-cycloserine, at 100 nmol/L of edaravone
  pEC50: 6.93
Neuro2a cells [7]; read-out: EC50 of the cell death suppressory effect of D-cycloserine, at 300 nmol/L of edaravone
  pEC50: 6.97
Neuro2a cells [7]; read-out: EC50 of the cell death suppressory effect of D-cycloserine, at 1,000 nmol/L of edaravone
  pEC50: 7.06
[8]
  trough value: > 128 nmol/L
TDP-43 [1]
  number of soluble fractions versus insoluble fractions of TDP-43: the number of soluble fractions of TDP-43 was larger than the number of insoluble fractions of TDP-43
  proportion of insoluble fractions based on total of soluble and insoluble fractions of TDP-43: less than half
Neuro2a cells [2]
  cell death in cells transfected with the TDP-43 gene: cell death was inhibited; also recorded: exhibited an effect of inhibiting cell death in a concentration-dependent manner
TDP-43 [3]
  bands for insoluble fractions of TDP-43: bands for insoluble fractions were unclear
TDP-43 [4]
  bands for insoluble fractions of TDP-43: bands for insoluble fractions were unclear
  average proportion of insoluble fractions of TDP-43: about 17.4%
